Measured values taken from US9968637B2, “Dopaminergic neurons differentiated from pluripotent stem cells and uses thereof” (THE MCLEAN HOSPITAL CORPORATION, priority 2010, dated 2018).

Experiments:
[1] = test system: human ES cell-derived neural progenitor cells; assay: Quantitative PCR transcriptional profile after differentiation with retinoic acid
[2] = test system: human ES cell-derived FOXA2 expressing neural progenitor cells; assay: Immunocytochemistry and cell counts of FOXA2 expressing DA neurons at DIV49; assay type: cell-based
Protocol: Media were changed every 2 days.
Neural progenitor cells were differentiated toward the DA neuron phenotype with mouse sonic hedgehog (Shh-N), human activated sonic hedgehog (C24II SHH-N), mouse fibroblast growth factor 8b (FGF8b), human FGF8A (all from R&D Systems, Inc.), 20 ng/ml brain derived neurotrophic factor (BDNF) (PeproTech EC Ltd), 1 ng/ml transforming growth factor type β3 (TGF-β3) (Calbiochem, San Diego, Calif.), 10 ng/ml glial cell line-derived neurotrophic factor (GDNF), 0.5 mM dibutyryl cAMP, and 0.2 mM ascorbic acid (AA) (all from Sigma-Aldrich). After 21 days (Day 35) cells were passaged using Tryple (Invitrogen Corporation) and spun at 1,000 rpm for 5 minutes. Cells were resuspended in N2 medium and plated again at a density of approximately 1,000,000-2,000,000 cells per well (24 well plate) on polyornithine/laminin-coated dishes in the presence of BDNF, AA, SHH, and FGF8. After an additional 7 days of culture (DIV42), cells were differentiated until Day 49 without SHH and FGF8 but in the presence of BDNF, AA, cAMP, GDNF, and TGF-β3.
Cells were fixed in 4% paraformaldehyde and analyzed by indirect immunofluorescence (Sonntag et al., 2005). Fluorescent signals were examined using an LSM510 Meta confocal microscope equipped with ultraviolet, argon, and helium-neon lasers (Carl Zeiss, Thornwood, N.Y.). […]
Quantitative analysis of immunocytochemistry was performed on randomly selected confocal fields from at least two independent differentiation experiments. In each field, images of separate channels (Hoechst, 488, 568, 594) were acquired at 40× magnification on an integrated confocal microscope (LSM510/Meta, Carl Zeiss) and stereology workstation (StereoInvestigator, MBF Bioscience, Inc., Williston, Vt.), where images of cells in independent channels and merged images were counted.

CC1=C(/C=C/C(C)=C/C=C/C(C)=C/C(=O)O)C(C)(C)CCC1 [RA, all-trans retinoic acid]
OTX2, PAX2 and HOXB1 levels ([1]; 10^-6 M and 10^-7 M RA, 22 days of differentiation, relative to conditions without RA): reduced OTX2 and PAX2 levels and increased HOXB1 levels
increase of expression levels of the midbrain transcription factor EN1 ([1]; 10^-8 M RA, 22 days of differentiation, relative to conditions without RA): more than 2000 fold
expression levels of the ventral neural transcription factor FOXA2 ([1]; all RA conditions tested (0, 10^-6 to 10^-9 M)): consistently low

B1: Noggin: recombinant Noggin protein (R&D Systems) (protein, UniProt Q13253 28-232, looked up)
Noggin: QHYLHIRPAPSDNLPLVDLIEHPDPIFDPKEKDLNETLLRSLLGGHYDPGFMATSPPEDRPGGGGGAAGGAEDLAELDQLLRQRPSGAMPSEIKGLEFSEGLAQGKKQRLSKKLRRKLQMWLWSQTFCPVLYAWNDLGSRFWPRYVKVGSCFSKRSCSVPEGMVCKPSKSVHLTVLRWRCQRRGGQRCGWIPIQYPIISECKCSC
cells coexpressing FOXA2, TH and β-tubulin ([2]; DIV49, cultures grown with Noggin alone during first 14 days): did not contain cells that coexpressed FOXA2, TH, and β-tubulin
cells coexpressing FOXA2, TH and β-tubulin ([2]; DIV49, cultures grown with or without Noggin during first 14 days (with WNT1)): contained cells that coexpressed FOXA2, TH and β-tubulin

B2: WNT1: secreted signaling protein encoded by the human WNT1 proto-oncogene; recombinant (protein, UniProt P04628 28-370, looked up)
Proto-oncogene Wnt-1: ANSSGRWWGIVNVASSTNLLTDSKSLQLVLEPSLQLLSRKQRRLIRQNPGILHSVSGGLQSAVRECKWQFRNRRWNCPTAPGPHLFGKIVNRGCRETAFIFAITSAGVTHSVARSCSEGSIESCTCDYRRRGPGGPDWHWGGCSDNIDFGRLFGREFVDSGEKGRDLRFLMNLHNNEAGRTTVFSEMRQECKCHGMSGSCTVRTCWMRLPTLRAVGDVLRDRFDGASRVLYGNRGSNRASRAELLRLEPEDPAHKPPSPHDLVYFEKSPNFCTYSGRLGTAGTAGRACNSSSPALDGCELLCCGRGHRTRTQRVTERCNCTFHWCCHVSCRNCTHTRVLHECL
cells coexpressing FOXA2, TH and β-tubulin ([2]; DIV49, cultures grown without WNT1 during first 14 days): did not contain cells that coexpressed FOXA2, TH, and β-tubulin
